pIC50: −log10 of the molar value. Counter-ions that a name gives are not always drawn.
Assays:
[1] = molecular target: HCN4 (Homo sapiens (Human), UniProt Q9Y3Q4); assay: HCN4 current assay using PatchXpress 7000A; assay type: cell-based; settings: PatchXpress protocol; read-out: PX HCN4 IC50
Outline: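 Peak inward current taken at end of a −130 mV pulse, leak-subtracted, and normalized to the control amplitude. Cumulative concentrations applied for 7 min each at room temperature (approximately 22° C.) on an automated patch-clamp platform.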

[2] = molecular target: HCN1 (Homo sapiens (Human), UniProt O60741); assay: HCN1 current assay using PatchXpress 7000A; assay type: cell-based; settings: PatchXpress protocol; read-out: PX HCN1 IC50
HCN1, sequence (O60741 whole entry, species assumed): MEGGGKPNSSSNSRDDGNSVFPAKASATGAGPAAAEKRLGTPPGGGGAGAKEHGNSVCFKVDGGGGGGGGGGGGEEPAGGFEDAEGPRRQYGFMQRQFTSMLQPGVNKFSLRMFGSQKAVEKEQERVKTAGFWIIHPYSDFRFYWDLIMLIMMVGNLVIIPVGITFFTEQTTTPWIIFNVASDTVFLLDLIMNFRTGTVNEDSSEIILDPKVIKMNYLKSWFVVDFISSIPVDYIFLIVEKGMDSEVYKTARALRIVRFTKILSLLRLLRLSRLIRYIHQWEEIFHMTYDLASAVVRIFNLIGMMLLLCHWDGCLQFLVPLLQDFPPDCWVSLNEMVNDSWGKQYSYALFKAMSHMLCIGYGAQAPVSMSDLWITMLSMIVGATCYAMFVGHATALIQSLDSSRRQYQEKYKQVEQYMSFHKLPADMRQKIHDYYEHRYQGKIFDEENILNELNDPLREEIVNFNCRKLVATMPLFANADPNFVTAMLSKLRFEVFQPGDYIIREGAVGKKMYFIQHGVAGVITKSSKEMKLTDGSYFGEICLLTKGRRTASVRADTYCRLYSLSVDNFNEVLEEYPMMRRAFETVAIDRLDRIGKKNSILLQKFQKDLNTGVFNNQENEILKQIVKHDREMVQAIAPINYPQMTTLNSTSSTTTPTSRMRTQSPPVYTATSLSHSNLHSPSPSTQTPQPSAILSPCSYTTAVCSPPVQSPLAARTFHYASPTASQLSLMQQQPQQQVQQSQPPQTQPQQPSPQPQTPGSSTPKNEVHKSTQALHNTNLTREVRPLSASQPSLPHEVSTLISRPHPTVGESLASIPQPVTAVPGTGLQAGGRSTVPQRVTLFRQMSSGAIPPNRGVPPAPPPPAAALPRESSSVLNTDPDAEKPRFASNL
Experimental: Example 126A, Using PatchXpress 7000A
(§1) Solutions for recording HCN currents were:
The membrane voltage was then stepped back to −30 mV for a further 8 seconds.
The peak inward current measured at the end of the pulse to −110 mV (HCN1 and HCN2) or −130 mV (HCN4) was measured and any leak current subtracted to calculate the HCN current. The HCN current amplitude was measured after each control or compound addition and normalized to the control amplitude (Control A).
All experiments were performed at room temperature (approximately 22° C.).
Each test compound concentration was applied to the cell for seven (7) minutes, at which point the next cumulative concentration was applied.

[3] = molecular target: T1, HCN2 (Homo sapiens (Human), UniProt Q9UL51); assay: HCN2 current assay using PatchXpress 7000A; assay type: cell-based; settings: PatchXpress protocol; read-out: PX HCN2 IC50
T1 sequence (Q9UL51 whole entry): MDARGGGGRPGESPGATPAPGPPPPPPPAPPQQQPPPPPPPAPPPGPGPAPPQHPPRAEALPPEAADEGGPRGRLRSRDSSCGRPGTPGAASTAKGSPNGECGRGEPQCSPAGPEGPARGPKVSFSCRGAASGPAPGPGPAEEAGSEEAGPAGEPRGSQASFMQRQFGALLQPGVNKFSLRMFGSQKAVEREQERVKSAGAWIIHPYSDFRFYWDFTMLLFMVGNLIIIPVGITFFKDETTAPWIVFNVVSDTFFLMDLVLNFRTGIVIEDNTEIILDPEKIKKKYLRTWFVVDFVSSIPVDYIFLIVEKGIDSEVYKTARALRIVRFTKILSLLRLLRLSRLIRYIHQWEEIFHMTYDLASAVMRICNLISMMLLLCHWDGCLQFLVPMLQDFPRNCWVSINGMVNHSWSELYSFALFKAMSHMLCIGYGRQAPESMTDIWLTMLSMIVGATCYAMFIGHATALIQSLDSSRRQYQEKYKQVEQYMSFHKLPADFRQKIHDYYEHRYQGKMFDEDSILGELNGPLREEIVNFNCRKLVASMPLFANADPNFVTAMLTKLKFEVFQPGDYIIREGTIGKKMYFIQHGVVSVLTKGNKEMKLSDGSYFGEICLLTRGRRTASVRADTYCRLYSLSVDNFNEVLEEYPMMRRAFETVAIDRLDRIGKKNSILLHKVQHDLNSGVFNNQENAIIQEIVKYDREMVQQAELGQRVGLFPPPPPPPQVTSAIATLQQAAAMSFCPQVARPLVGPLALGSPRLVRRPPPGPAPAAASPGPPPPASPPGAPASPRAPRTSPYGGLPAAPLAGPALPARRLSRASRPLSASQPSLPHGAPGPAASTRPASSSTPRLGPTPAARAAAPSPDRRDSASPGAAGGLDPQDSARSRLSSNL
Outline: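 Automated patch clamp (PatchXpress 7000A) at about 22° C. HCN current taken as leak-subtracted peak inward current at the end of a step to −110 mV, with a return to −30 mV for 8 seconds. Cumulative concentrations applied 7 minutes each; amplitude normalised to control.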

[4] = molecular target: T1, HCN2; assay: HCN2 current assay using the Sophion Qube; assay type: cell-based; settings: Sophion Qube protocol; read-out: SQ HCN2 IC50
Experimental: Example 126B, Using the Sophion Qube
as §1
This voltage protocol was applied every 20 seconds for the duration of the experiment. Both the vehicle (0.3% DMSO) and full block (3 mM CsCl) addition periods were applied for 10 experimental sweeps each.
The current amplitudes were measured by subtracting metric A from metric B (see FIG. 2) with inhibition calculated by normalising to the vehicle addition (0.3% DMSO) and full inhibition by 3 mM CsCl in the same well.
In total, compound was applied to the well for 600 seconds.

[5] = molecular target: hNav1.5 (Homo sapiens (Human), UniProt Q14524)
[6] = molecular target: hERG channel (Homo sapiens (Human), UniProt Q12809); assay: hERG assay using IonWorks Quattro; assay type: cell-based; settings: IonWorks protocol; read-out: IW hERG IC50
Experimental: Example 127A, Using IonWorks Quattro
Solutions for recording hERG currents were:
This was followed by a […] step of is to −30 mV to evoke the hERG tail current. This sequence was repeated 5 times at a frequency of 0.25 Hz (see FIG. 3). Currents were measured from the tail step at the 5th pulse and referenced to the holding current. Compounds were then incubated for 6-7 minutes prior to a second measurement of the hERG signal using an identical pulse train.

[7] = molecular target: MDR1 (P-glycoprotein) (Homo sapiens (Human), UniProt P08183); assay: in vitro; settings: dog, MDCK-MDR1, pH 7.4
MDR1 (P-glycoprotein), sequence (P08183 whole entry): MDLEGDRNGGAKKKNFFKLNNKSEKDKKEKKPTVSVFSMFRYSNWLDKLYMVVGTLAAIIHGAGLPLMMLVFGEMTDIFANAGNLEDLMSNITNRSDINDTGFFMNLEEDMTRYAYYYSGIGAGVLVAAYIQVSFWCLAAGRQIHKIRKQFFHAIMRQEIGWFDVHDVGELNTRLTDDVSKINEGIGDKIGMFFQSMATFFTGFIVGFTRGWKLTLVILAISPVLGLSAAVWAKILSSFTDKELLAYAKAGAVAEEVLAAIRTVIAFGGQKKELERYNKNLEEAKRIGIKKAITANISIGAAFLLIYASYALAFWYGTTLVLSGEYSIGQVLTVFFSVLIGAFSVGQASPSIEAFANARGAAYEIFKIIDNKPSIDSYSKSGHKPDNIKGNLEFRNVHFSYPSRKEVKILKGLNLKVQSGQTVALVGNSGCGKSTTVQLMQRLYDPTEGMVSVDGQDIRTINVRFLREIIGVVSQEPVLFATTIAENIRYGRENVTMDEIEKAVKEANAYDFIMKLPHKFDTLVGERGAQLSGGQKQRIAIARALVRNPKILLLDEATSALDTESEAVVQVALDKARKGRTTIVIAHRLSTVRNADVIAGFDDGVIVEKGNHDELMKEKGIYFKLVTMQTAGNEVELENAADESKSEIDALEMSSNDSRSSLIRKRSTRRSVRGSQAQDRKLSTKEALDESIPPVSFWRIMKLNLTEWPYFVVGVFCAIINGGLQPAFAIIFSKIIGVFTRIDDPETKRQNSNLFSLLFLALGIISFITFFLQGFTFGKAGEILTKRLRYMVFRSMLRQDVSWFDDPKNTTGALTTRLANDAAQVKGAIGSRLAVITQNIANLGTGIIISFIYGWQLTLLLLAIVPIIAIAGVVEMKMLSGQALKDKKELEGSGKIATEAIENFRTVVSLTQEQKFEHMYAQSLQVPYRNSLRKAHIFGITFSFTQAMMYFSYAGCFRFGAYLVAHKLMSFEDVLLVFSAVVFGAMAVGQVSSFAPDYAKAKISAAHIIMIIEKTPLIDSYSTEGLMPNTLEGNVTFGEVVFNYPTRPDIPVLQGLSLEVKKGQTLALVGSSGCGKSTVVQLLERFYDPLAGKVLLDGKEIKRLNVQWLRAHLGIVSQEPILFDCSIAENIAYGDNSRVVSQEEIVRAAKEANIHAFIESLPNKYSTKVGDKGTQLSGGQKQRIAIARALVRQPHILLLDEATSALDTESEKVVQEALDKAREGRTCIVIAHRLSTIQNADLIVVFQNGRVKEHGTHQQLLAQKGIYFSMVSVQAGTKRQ
Experimental: Test compounds were added (10 μM, 0.1% DMSO final, n=2) to donor compartments of the Transwell plate assembly in assay buffer (Hanks balanced salt solution supplemented with 25 mM HEPES, adjusted to pH 7.4) for both apical to basolateral (A>B) and basolateral to apical (B>A) measurements. A parallel series of incubations were performed in the presence of the transporter inhibitor elacridar (5 μM) which was added to both compartments in the transwell plate. Incubations were performed at 37° C., with samples removed from both donor and acceptor chambers at T=0 and 1 hour for recovery assessment and compound analysed by mass spectrometry (LC-MS/MS), including an analytical internal standard.
Apparent permeability (Papp) values were determined from the relationship:
Where V is the volume of each Transwell compartment (apical 125 μL, basolateral 600 μL), and concentrations are the relative MS responses for compound (normalized to internal standard) in the donor chamber before incubation and acceptor chamber at the end of the incubation.
Area=area of cells exposed for drug transfer (0.33 cm2).
Efflux ratios (Papp B>A/Papp A>B) were calculated for each compound from the mean Papp values in each direction. […] The efflux ratios were also calculated in the same way from the runs carried out in the presence of the inhibitor. The net flux is the ratio of the efflux in the absence of inhibitor to that in the presence of inhibitor.
Lucifer Yellow (LY) was added to the apical buffer in all wells to assess viability of the cell layer.
Compound recovery from the wells was determined from MS responses (normalized to internal standard) in donor and acceptor chambers at the end of incubation compared to response in the donor chamber pre-incubation.

HCN4, sequence (Q9Y3Q4 whole entry, species assumed): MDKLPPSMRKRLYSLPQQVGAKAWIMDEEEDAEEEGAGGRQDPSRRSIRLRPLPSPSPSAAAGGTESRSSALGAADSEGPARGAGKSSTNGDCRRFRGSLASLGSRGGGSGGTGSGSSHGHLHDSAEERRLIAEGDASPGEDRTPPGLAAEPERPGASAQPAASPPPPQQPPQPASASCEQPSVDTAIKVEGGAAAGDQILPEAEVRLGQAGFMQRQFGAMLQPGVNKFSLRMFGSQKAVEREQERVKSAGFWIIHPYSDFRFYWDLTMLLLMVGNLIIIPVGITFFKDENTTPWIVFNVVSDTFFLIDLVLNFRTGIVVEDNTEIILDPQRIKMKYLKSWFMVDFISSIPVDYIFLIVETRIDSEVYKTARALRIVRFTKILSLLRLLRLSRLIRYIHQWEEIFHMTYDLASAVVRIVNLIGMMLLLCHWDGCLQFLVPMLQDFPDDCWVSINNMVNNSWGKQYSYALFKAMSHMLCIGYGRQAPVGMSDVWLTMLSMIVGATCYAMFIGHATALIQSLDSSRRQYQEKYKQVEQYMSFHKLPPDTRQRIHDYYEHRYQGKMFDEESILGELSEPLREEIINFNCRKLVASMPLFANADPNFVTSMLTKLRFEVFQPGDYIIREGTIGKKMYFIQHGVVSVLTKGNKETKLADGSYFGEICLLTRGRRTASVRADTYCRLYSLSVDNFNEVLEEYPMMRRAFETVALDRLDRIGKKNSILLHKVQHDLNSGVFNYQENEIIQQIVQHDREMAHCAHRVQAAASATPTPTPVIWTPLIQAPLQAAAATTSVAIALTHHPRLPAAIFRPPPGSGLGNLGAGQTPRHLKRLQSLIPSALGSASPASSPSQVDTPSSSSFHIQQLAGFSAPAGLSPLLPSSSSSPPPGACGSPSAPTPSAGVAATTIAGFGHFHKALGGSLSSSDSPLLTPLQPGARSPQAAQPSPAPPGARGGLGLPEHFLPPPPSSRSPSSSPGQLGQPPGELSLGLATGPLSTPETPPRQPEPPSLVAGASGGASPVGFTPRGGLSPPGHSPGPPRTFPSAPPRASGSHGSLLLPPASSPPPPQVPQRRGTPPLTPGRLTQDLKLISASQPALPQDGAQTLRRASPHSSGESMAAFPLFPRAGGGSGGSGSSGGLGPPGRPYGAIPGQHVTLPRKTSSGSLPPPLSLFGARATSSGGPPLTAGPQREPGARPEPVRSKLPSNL

pIC50 [4]	SMILES	pIC50 [1]	pIC50 [2]	pIC50 [3]	pIC50 [5]	pIC50 [6]	efflux ratio at 1 h, 10 μM [7]
	N#Cc1nc(C[C@H](N)c2ccccc2-c2noc3ccccc23)ccc1F [Example 6, (S)-1-[2-(Benzo[d]isoxazol-3-yl)phenyl]-2-(6-cyano-5-fluoropyridine-2-yl)ethan-1-amine hydrochloride]	5.09	5.74	6.41			
	CCc1ccc(C)c(C[C@H](N)c2ccccc2-c2noc3ccccc23)n1 [Example 9, (S)-1-[2-(Benzo[d]isoxazol-3-yl)phenyl]-2-(6-ethyl-3-methylpyridine-2-yl)ethan-1-amine hydrochloride]	5.77	6.43	6.59			
4.76	CS(=O)(=O)c1ccc(F)c(C[C@H](N)c2ccccc2-c2noc3cc(C(F)(F)F)ccc23)n1 [Example 10, (S)-2-(3-Fluoro-6-methylsulfonylpyridine-2-yl)-1-[2-(6-trifluoromethylbenzo[d]isoxazol-3-yl)phenyl]ethan-1-amine hydrochloride]						
	N#Cc1ccc2c(-c3ccccc3[C@@H](N)Cc3ccccn3)noc2c1 [Example 29, (S)-1-[2-(6-Cyanobenzo[d]isoxazol-3-yl)phenyl]-2-(pyridine-2-yl)ethan-1-amine]	< 4.52	5.05	5.37			
	N[C@@H](Cc1ccccn1)c1ccccc1-c1noc2cc(CO)ccc12 [Example 30, (S)-1-[2-(6-Hyroxymethylbenzo[d]isoxazol-3-yl)phenyl]-2-(pyridine-2-yl)ethan-1-amine hydrochloride]	4.89	5.52	5.52			
	Cn1nc(-c2ccccc2[C@@H](N)Cc2ccccn2)c2ccccc21 [Example 60, (S)-1-[2-(1-Methyl-1H-indazole-3-yl)phenyl]-2-(pyridine-2-yl)ethan-1-amine hydrochloride]	< 4.52	< 4.52	5.51	5.04	6.49	
	N[C@@H](Cc1ncccc1F)c1ccccc1-c1noc2ccccc12 [Example 63, (S)-1-[2-(Benzo[d]isoxazol-3-yl)phenyl]-2-(3-fluoropyridin-2-yl)ethan-1-amine hydrochloride]	< 4.52	5.10	6.30			
	N[C@@H](Cc1ccc(F)cn1)c1ccccc1-c1noc2ccccc12 [Example 69, (S)-1-[2-(Benzo[d]isoxazol-3-yl)phenyl]-2-(5-fluoropyridin-2-yl)ethan-1-amine hydrochloride]	5.09	5.85	6.30			
	COc1ccnc(C[C@H](N)c2ccccc2-c2noc3ccccc23)c1 [Example 70, (S)-1-[2-(Benzo[d]isoxazol-3-yl)phenyl]-2-(4-methoxypyridin-2-yl)ethan-1-amine]	4.72	5.42	6.00			
	N#Cc1ccc(F)c(C[C@H](N)c2ccccc2-c2noc3ccccc23)n1 [Example 71, (S)-1-[2-(Benzo[d]isoxazol-3-yl)phenyl]-2-(6-cyano-3-fluoropyridin-2-yl)ethan-1-amine formate]	5.46	5.36	6.30			
	NC(=O)c1ccc(F)c(C[C@H](N)c2ccccc2-c2noc3ccccc23)n1 [Example 72, (S)-6-{2-Amino-2-[2-(benzo[d]isoxazol-3-yl)phenyl]ethyl}-5-fluoropyridine-2-carboxamide formate]	4.99	6.00	5.92	4.73	4.68	11.3
	Cc1ccc(F)c(C[C@H](N)c2ccccc2-c2noc3ccccc23)n1 [Example 73, (S)-1-[2-(Benzo[d]isoxazol-3-yl)phenyl]-2-(3-fluoro-6-methylpyridin-2-yl)ethan-1-amine hydrochloride]	5.55	6.30	6.40			
	CN(C)C(=O)c1ccc(F)c(C[C@H](N)c2ccccc2-c2noc3ccccc23)n1 [Example 74, (S)-6-{2-Amino-2-[2-(benzo[d]isoxazol-3-yl)phenyl]ethyl}-5-fluoro-N,N-dimethylpyridin-2-carboxamide hydrochloride]	4.68	5.34	5.74	4.94	5.00	16.7
	CN(C)C(=O)c1cccc(C[C@H](N)c2ccccc2-c2noc3ccccc23)n1 [Example 89, (S)-6-{2-Amino-2-[2-(Benzo[d]isoxazol-3-yl)phenyl]ethyl-N,N-dimethylpyridine-2-carboxamide hydrochloride]	< 4.52		5.51	5.24	4.72	24.6
	N[C@@H](Cc1cccc(-c2cn[nH]c2)n1)c1ccccc1-c1noc2ccccc12 [Example 91, (S)-2-[6-(1H-Pyrazol-4-yl)pyridine-2-yl])-1-[2-(benzo[d]isoxazol-3-yl)phenyl]ethan-1-amine hydrochloride]	5.00		6.00	5.47	5.74	23.1
	N#Cc1ccc2c(-c3ccccc3[C@@H](N)Cc3cccc(C#N)n3)noc2c1 [Example 95, (S)-1-[2-(6-Cyanobenzo[d]isoxazol-3-yl)phenyl]-2-(6-cyanopyridine-2-yl)ethan-1-amine]	< 4.52		5.85	< 4.48	5.54	4.5
	CNc1cccc(C[C@H](N)c2ccccc2-c2noc3cc(C#N)ccc23)n1 [Example 97, (S)-1-[2-(6-Cyanobenzo[d]isoxazol-3-yl)phenyl]-2-(6-methylaminopyridine-2-yl)ethan-1-amine dihydrochloride]	4.88		5.59	5.08	6.27	12.2
	N#Cc1ccc2c(-c3ccccc3[C@@H](N)Cc3cccc(OCCO)n3)noc2c1 [Example 99, (S)-1-[2-(6-Cyanobenzo[d]isoxazol-3-yl)phenyl]-2-[6-(2-hydroxyethoxyl)pyridine-2-yl]ethan-1-amine hydrochloride]	< 4.52		5.62	4.73	5.68	78.5
	N[C@@H](Cc1cccc(CCO)n1)c1ccccc1-c1noc2ccccc12 [Example 100, (S)-1-[2-(Benzo[d]isoxazol-3-yl)phenyl]-2-[6-(2-hydroxyethyl)pyridine-2-yl]ethan-1-amine hydrochloride]	< 4.52		5.64	5.55	4.89	8.7
	N[C@@H](Cc1ccccn1)c1c(F)cccc1-c1noc2ccccc12 [Example 111, (S)-1-[2-(Benzo[d]isoxazol-3-yl)-6-fluorophenyl]-2-(pyridin-2-yl)ethan-1-amine hydrochloride]	< 4.52		5.74	4.55	5.13	1
	Cc1cccc(C[C@H](N)c2ccccc2-c2noc3ccccc23)n1 [Example 114, (S)-1-[2-(Benzo[d]isoxazol-3-yl)phenyl]-2-(6-methylpyridine-2-yl)ethan-1-amine hydrochloride]	5.05	5.35	6.21			
	N#Cc1cccc(C[C@H](N)c2ccccc2-c2noc3ccccc23)n1 [Example 116, (S)-1-[2-(Benzo[d]isoxazol-3-yl)phenyl]-2-(6-cyanopyridine-2-yl)ethan-1-amine hydrochloride]	4.87	5.47	6.15	4.95	4.99	1.1
	Cc1ccc(S(C)(=O)=O)nc1C[C@H](N)c1ccccc1-c1noc2ccccc12 [Example 125, (S)-1-[2-(Benzo[d]isoxazol-3-yl)phenyl]-2-[3-methyl-6-(methylsulfonyl)pyridine-2-yl]ethan-1-amine hydrochloride]	5.92	6.40	6.62			
